Our source for the Ki values is patent publication US20040142933A1, “Oxindole substituted piperazine derivatives” (priority 2002, published 2004).

For assay [1], the target named is T1, dopamine D2 receptor (Homo sapiens, UniProt P14416).
T1 construct: expressed in transfected cells; host or cells: CHO cells (CHO-hD2L)
The assay is described as follows: Dopamine D2 receptor binding, [3H]spiperone, CHO-hD2L cell membranes. The note with it: [3H]spiperone 0.4 nM. The text has this:
(§1) The ability of the compounds of this invention to bind to the dopamine D2 and serotonin 2A (5HT2A) receptors can be determined using conventional radioligand receptor binding assays. All receptors can be heterologously expressed in cell lines and experiments conducted in membrane preparations from the cell lines using procedures outlined below. IC50 concentrations can be determined by nonlinear regression of concentration-dependent reduction in specific binding. The Cheng-Prussoff equation can be used to convert the IC50 to Ki concentrations.
Dopamine D2 Receptor Binding:
[^3H]Spiperone binding to a membrane preparation from CHO-hD2L cells is carried out in 250 μl of 50 mM Tris-HCl buffer containing 100 mM NaCl, 1 mM MgCl2 and 1% DMSO at pH 7.4. Duplicate samples containing (in order of addition) the test compounds, 0.4 nM [^3H]spiperone and approximately 12 μg protein are incubated for 120 minutes at room temperature. Bound radioligand is separated by rapid filtration under reduced pressure through Whatman GF/B glass fiber filters previously treated with 0.3% polyethyleneimine. Radioactivity retained on the filter is determined by liquid scintillation spectrophotometry.
The title compounds of Examples 1-14 were tested using the above assay, in which specific binding determined in the presence of 1 mM haloperidol was 95%.

For assay [2], the target named is T2, serotonin 2A (5HT2A) receptor (Homo sapiens, UniProt P28223).
T2 construct: expressed in transfected cells; host or cells: Swiss cells (Swiss-h5HT2A)
T2 sequence (P28223 whole entry): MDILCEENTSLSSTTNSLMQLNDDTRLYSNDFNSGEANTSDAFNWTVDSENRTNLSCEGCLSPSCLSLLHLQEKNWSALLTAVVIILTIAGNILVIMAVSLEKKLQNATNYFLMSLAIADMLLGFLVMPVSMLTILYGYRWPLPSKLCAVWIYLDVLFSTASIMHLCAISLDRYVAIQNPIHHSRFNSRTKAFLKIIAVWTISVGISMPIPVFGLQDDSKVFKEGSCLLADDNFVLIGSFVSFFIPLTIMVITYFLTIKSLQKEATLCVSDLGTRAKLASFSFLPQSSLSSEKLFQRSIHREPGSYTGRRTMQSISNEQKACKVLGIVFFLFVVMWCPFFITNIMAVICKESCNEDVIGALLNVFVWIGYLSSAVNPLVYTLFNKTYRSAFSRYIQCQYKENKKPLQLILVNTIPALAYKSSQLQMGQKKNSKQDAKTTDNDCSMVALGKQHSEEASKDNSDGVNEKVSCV
The assay is described as follows: Serotonin 2A binding, [3H]ketanserin, Swiss-h5HT2A cell membranes. The note with it: [3H]ketanserin 1.0 nM.
Excerpt: as §1
[^3H] Ketanserin binding to Swiss-h5HT2A cell membranes can be carried out in 250 μl of 50 mM Tris-HCl buffer pH 7.4. Duplicate samples containing (in order of addition) test compounds, 1.0 nM [^3H]ketanserin, and approximately 75 μg protein are incubated for 120 minutes at room temperature. Bound radioligand is separated by rapid filtration under reduced pressure through Whatman GF/B glass fiber filters previously treated with 0.3% polyethyleneimine. Radioactivity retained on the filter is determined by liquid scintillation spectrophotometry.
The title compounds of Examples 1-14 were tested using the above assay, in which specific binding determined in the presence of 1 mM ketanserin was 90%.

T1 sequence (P14416 whole entry): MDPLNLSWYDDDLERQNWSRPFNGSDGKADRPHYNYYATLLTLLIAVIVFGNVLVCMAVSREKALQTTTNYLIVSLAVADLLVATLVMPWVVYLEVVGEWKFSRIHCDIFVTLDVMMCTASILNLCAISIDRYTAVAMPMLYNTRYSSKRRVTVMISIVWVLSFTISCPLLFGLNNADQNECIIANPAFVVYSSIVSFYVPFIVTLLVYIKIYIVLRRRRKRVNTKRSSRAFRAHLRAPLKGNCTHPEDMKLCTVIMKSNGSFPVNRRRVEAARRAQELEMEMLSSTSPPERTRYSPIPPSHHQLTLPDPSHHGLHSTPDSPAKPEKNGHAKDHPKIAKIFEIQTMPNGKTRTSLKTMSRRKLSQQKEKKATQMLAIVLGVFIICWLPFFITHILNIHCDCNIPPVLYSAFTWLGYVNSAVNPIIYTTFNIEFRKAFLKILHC

With `CC(C)=C1C(=O)Nc2ccc(CCCN3CCN(c4noc5ccccc45)CC3)cc21` [Example 4, 5-[3-(4-1,2-Benzisoxazol-3-yl-piperazin-1-yl)-propyl]-3-isopropylidene-1,3-dihydro-indol-2-one], affinity in assay [1] was put at a Ki of 49.4 nM.

Regarding `CC1(C)CC12C(=O)Nc1cc(Cl)c(CCCN3CCN(c4nsc5ccccc45)CC3)cc12` (stereo not drawn) [Example 14, Spiro[cyclopropane-1,3′-{3H}indol]-2′(1′H)-one,5′-[3-[4-{1,2-benzisothiazol-3-yl}-1-piperazinyl]propyl]-6′-chloro-2,2-dimethyl—], affinity in assay [2] was put at a Ki of 7.45 nM.

`CC(C)=C1C(=O)N(C)c2ccc(CCN3CCN(c4nsc5ccccc45)CC3)cc21` [Example 1, 5-[2-(4-1,2-benzisothiazol-3-yl-piperazin-1-yl)-ethyl]-3-isopropylidene-1-methyl-1,3-dihydro-indol-2-one]: the inhibition constant Ki (as a rule, the equilibrium dissociation constant of an inhibitor or competing ligand from its target) in assay [1] is 14.7 nM; in assay [2], 0.75 nM.

For `CC(C)=C1C(=O)Nc2cc(Cl)c(CCN3CCN(c4nsc5ccccc45)CC3)cc21` [Example 5, 5-[2-(4-1,2-benzisothiazol-3-yl-piperazin-1-yl)-ethyl]-6-chloro-3-isopropylidene-1,3-dihydro-indol-2-one], the results for the Ki in assay [1] and in assay [2] were 1.3 nM and 8.4 nM, respectively.
